{"source": "patent US20250127799A1", "about": "“DRUG CONJUGATES FOR BONE MARROW PROTECTION” (priority 2023, published 2025)", "key": {"[1]": {"assay": "Conjugate cleavage in fresh bone marrow aspirate (HPLC)", "type": "in vitro ADME", "conditions": "fresh bone marrow aspirate; human bone marrow aspirate, same donor, 37° C., up to 6 h; read-out: time to reach 50% conjugate cleavage (converted)", "description": "The proteolytic cleavage of conjugates determines the therapeutic window, which is controlled by the specific peptide sequence. In a representative cleavage experiment, a […] stock solution of a conjugate (30 mg/mL) was mixed with 90 μL of fresh bone marrow aspirate, followed by incubation at 37° C. for up to 6 h. A 10 μL sample was taken every hour, diluted in 90 μL acetonitrile to precipitate proteins and extract conjugates and cleavage products. The concentrations of the conjugates in samples were determined by HPLC, normalized, and presented as the cleavage ratio."}, "CD2F1 male mice": {"tested_on": "CD2F1 male mice", "assay": "Pathological evaluation of irradiated mice injected with a single dose", "type": "in vivo", "design": "key to Pathological change grade: Spleen, Depletion, white pulp / Pathological change grade: Lung, Infiltrate, mixed cells / Pathological change grade: Lung, Fibrosis / Pathological change grade: Heart, Infiltrate, mixed cells / Pathological change grade: Heart, Mineralization / Pathological change grade: Duodenum / Pathological change grade: Jejunum / Pathological change grade: Ileum / Pathological change grade: Colon, Infiltrate, mixed cells / Pathological change grade: Kidney / Pathological change grade: Urinary bladder / Pathological change grade: Bone Marrow, Atrophy / Pathological change grade: Bone Marrow, Hemorrhage / Pathological change grade: Liver: 0=no change; 1=a minimal change, barely perceptible; 2=a mild change; 3 =a moderate change, affecting up to 50% of the tissue; 4=marked change, affecting up to 90% of the tissue; 5=severe or maximum change", "description": "CD2F1 male mice (N=16) were subcutaneously (sc) injected with a single dose of one conjugate drug. For one protective drug conjugate (Conjugate 2), the tested doses were 250, 500, 600, and 700 mg/kg, and the irradiation was conducted at 24 h post-drug administration. The structure of Conjugate 2 included amifostine as the protective drug, alendronate as the bone-targeting ligand, and a protease-cleavable peptide having the sequence of CPLGLYAL (SEQ ID NO: 29) with acetylation at the N-terminus (e.g., AcCPLGLYAL; SEQ ID NO: 76). On day 30, surviving mice were humanely sacrificed and necropsied, eleven tissues of interest (liver, spleen, lung, heart, duodenum, jejunum, ileum, colon, kidney, urinary bladder, and sternum/bone marrow) were collected, preserved in fixative, and processed to glass slides. The completed preparations were stained with hematoxylin and eosin and examined microscopically. Pathological changes in the tissues were graded using a semi-quantitation scale of 0-5, where 0=no change, 1=a minimal change, barely perceptible; 2=a mild change; 3 =a moderate change, affecting up to 50% of the tissue; 4=marked change, affecting up to 90% of the tissue; and 5=severe or maximum change."}, "[2]": {"molecular_target": "matrix metalloproteinase 9 (MMP9) (Homo sapiens, UniProt P14780)", "sequence (P14780 94-707, species assumed)": "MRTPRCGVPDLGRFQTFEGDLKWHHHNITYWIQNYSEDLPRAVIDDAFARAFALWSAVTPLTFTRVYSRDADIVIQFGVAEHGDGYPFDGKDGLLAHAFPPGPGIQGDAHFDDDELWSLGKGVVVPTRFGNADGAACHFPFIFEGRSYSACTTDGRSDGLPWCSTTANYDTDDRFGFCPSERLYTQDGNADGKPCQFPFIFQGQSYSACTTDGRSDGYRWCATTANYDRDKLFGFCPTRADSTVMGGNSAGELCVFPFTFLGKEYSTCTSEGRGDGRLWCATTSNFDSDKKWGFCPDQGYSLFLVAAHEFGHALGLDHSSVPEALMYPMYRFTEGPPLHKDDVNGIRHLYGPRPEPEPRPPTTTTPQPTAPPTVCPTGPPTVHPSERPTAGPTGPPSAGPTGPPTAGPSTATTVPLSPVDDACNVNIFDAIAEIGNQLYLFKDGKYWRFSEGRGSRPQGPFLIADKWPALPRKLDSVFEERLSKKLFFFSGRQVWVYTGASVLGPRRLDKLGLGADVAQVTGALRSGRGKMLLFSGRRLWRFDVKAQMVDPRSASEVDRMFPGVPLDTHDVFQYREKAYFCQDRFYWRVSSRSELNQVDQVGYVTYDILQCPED", "assay": "In vitro matrix metalloproteinase-based conjugate cleavage", "type": "biochemical", "conditions": "isolated enzyme, MMP9, 37° C., up to 20 h, read-out: T1/2 of cleavage (converted)", "description": "In this exemplary representative cleavage experiment, a 90 μL stock solution of protective drug conjugate (1 mg/mL) was mixed with 2 μL of matrix metalloproteinase 9 (MMP9) (10 unit/μL) and 8.2 μL of 50 mM CaCl2 solution, followed by incubation at 37° C. for up to 20 h. A 10 μL sample was taken at 0.3, 1, 2, 4, 9, or 20 h for the HPLC analysis. Three conjugates having different peptide sequences (Conjugates 1-3) were used in this test: Conjugate 1-peptide sequence of CPLSLYAL (SEQ ID NO: 65); Conjugate 2-peptide sequence of CPLSLYSL (SEQ ID NO: 66); and Conjugate 3-peptide sequence of CPLGLAL (SEQ ID NO: 67). The concentrations of the conjugate residual in samples were normalized and presented as cleavage ratios."}, "[3]": {"conditions": "250 mg/kg sc, 24 h before 9.2 Gy, day 30, N = 11"}, "[4]": {"conditions": "500 mg/kg sc, 24 h before 9.2 Gy, day 30, N = 12"}, "[5]": {"conditions": "600 mg/kg sc, 24 h before 9.2 Gy, day 30, N = 15"}, "[6]": {"conditions": "700 mg/kg sc, 24 h before 9.2 Gy, day 30, N = 16"}}, "note": "Peptide text beside a SMILES is read from it. * marks the point of attachment. X1 = O=C(CCCCCN1C(=O)CC(*)C1=O)NCCCC(O)(P(=O)(O)O)P(=O)(O)O; X2 = O=P(O)(O)SCCNCCCN*"}
{"smiles": "CC(=O)N[C@@H](CSC1CC(=O)N(CCCCCC(=O)NCCCC(O)(P(=O)(O)O)P(=O)(O)O)C1=O)C(=O)N1CCC[C@H]1C(=O)N[C@@H](CC(C)C)C(=O)NCC(=O)N[C@@H](CC(C)C)C(=O)N[C@@H](Cc1ccc(O)cc1)C(=O)N[C@@H](C)C(=O)N[C@@H](CC(C)C)C(=O)NCCCNCCSP(=O)(O)O", "note": "(stereo partly shown) [Conjugate 2] (Ac-C(X1)PLGLYAL-X2)", "values": [{"measurement": "half-life at 3 mg/mL", "setting": "[1]", "value": 4.2, "unit": "h"}, {"measurement": "Pathological change grade: Bone Marrow, Atrophy", "setting": "CD2F1 male mice; [3]", "value": "2-3"}, {"measurement": "Pathological change grade: Bone Marrow, Hemorrhage", "setting": "CD2F1 male mice; [3]", "value": "0-1"}, {"measurement": "Pathological change grade: Colon, Infiltrate, mixed cells", "setting": "CD2F1 male mice; [3]", "value": 1}, {"measurement": "Pathological change grade: Duodenum", "setting": "CD2F1 male mice; [3]", "value": 0}, {"measurement": "Pathological change grade: Heart, Infiltrate, mixed cells", "setting": "CD2F1 male mice; [3]", "value": 0}, {"measurement": "Pathological change grade: Heart, Mineralization", "setting": "CD2F1 male mice; [3]", "value": 0}, {"measurement": "Pathological change grade: Ileum", "setting": "CD2F1 male mice; [3]", "value": 0}, {"measurement": "Pathological change grade: Jejunum", "setting": "CD2F1 male mice; [3]", "value": 0}, {"measurement": "Pathological change grade: Kidney", "setting": "CD2F1 male mice; [3]", "value": 0}, {"measurement": "Pathological change grade: Liver", "setting": "CD2F1 male mice; [3]", "value": 0}, {"measurement": "Pathological change grade: Lung, Fibrosis", "setting": "CD2F1 male mice; [3]", "value": 0}, {"measurement": "Pathological change grade: Lung, Infiltrate, mixed cells", "setting": "CD2F1 male mice; [3]", "value": 0}, {"measurement": "Pathological change grade: Spleen, Depletion, white pulp", "setting": "CD2F1 male mice; [3]", "value": 2}, {"measurement": "Pathological change grade: Urinary bladder", "setting": "CD2F1 male mice; [3]", "value": 0}, {"measurement": "Pathological change grade: Bone Marrow, Atrophy", "setting": "CD2F1 male mice; [4]", "value": "2-3"}, {"measurement": "Pathological change grade: Bone Marrow, Hemorrhage", "setting": "CD2F1 male mice; [4]", "value": "0-1"}, {"measurement": "Pathological change grade: Colon, Infiltrate, mixed cells", "setting": "CD2F1 male mice; [4]", "value": 1}, {"measurement": "Pathological change grade: Duodenum", "setting": "CD2F1 male mice; [4]", "value": 0}, {"measurement": "Pathological change grade: Heart, Infiltrate, mixed cells", "setting": "CD2F1 male mice; [4]", "value": 0}, {"measurement": "Pathological change grade: Heart, Mineralization", "setting": "CD2F1 male mice; [4]", "value": 0}, {"measurement": "Pathological change grade: Ileum", "setting": "CD2F1 male mice; [4]", "value": 0}, {"measurement": "Pathological change grade: Jejunum", "setting": "CD2F1 male mice; [4]", "value": 0}, {"measurement": "Pathological change grade: Kidney", "setting": "CD2F1 male mice; [4]", "value": 0}, {"measurement": "Pathological change grade: Liver", "setting": "CD2F1 male mice; [4]", "value": 0}, {"measurement": "Pathological change grade: Lung, Fibrosis", "setting": "CD2F1 male mice; [4]", "value": 0}, {"measurement": "Pathological change grade: Lung, Infiltrate, mixed cells", "setting": "CD2F1 male mice; [4]", "value": 0}, {"measurement": "Pathological change grade: Spleen, Depletion, white pulp", "setting": "CD2F1 male mice; [4]", "value": "1-2"}, {"measurement": "Pathological change grade: Urinary bladder", "setting": "CD2F1 male mice; [4]", "value": 0}, {"measurement": "Pathological change grade: Bone Marrow, Atrophy", "setting": "CD2F1 male mice; [5]", "value": "2-3"}, {"measurement": "Pathological change grade: Bone Marrow, Hemorrhage", "setting": "CD2F1 male mice; [5]", "value": "0-1"}, {"measurement": "Pathological change grade: Colon, Infiltrate, mixed cells", "setting": "CD2F1 male mice; [5]", "value": "0-1"}, {"measurement": "Pathological change grade: Duodenum", "setting": "CD2F1 male mice; [5]", "value": 0}, {"measurement": "Pathological change grade: Heart, Infiltrate, mixed cells", "setting": "CD2F1 male mice; [5]", "value": 0}, {"measurement": "Pathological change grade: Heart, Mineralization", "setting": "CD2F1 male mice; [5]", "value": 0}, {"measurement": "Pathological change grade: Ileum", "setting": "CD2F1 male mice; [5]", "value": 0}, {"measurement": "Pathological change grade: Jejunum", "setting": "CD2F1 male mice; [5]", "value": 0}, {"measurement": "Pathological change grade: Kidney", "setting": "CD2F1 male mice; [5]", "value": 0}, {"measurement": "Pathological change grade: Liver", "setting": "CD2F1 male mice; [5]", "value": 0}, {"measurement": "Pathological change grade: Lung, Fibrosis", "setting": "CD2F1 male mice; [5]", "value": 0}, {"measurement": "Pathological change grade: Lung, Infiltrate, mixed cells", "setting": "CD2F1 male mice; [5]", "value": 0}, {"measurement": "Pathological change grade: Spleen, Depletion, white pulp", "setting": "CD2F1 male mice; [5]", "value": "1-2"}, {"measurement": "Pathological change grade: Urinary bladder", "setting": "CD2F1 male mice; [5]", "value": 0}, {"measurement": "sternal bone marrow histology compared to Vehicle Group", "setting": "CD2F1 male mice; 700 mg/kg 24 h before 9.2 Gy, day 30 (FIG. 11B)", "value": "much denser marrow"}, {"measurement": "white pulp of the spleen, histology", "setting": "CD2F1 male mice; 700 mg/kg 24 h before 9.2 Gy, day 30 (FIG. 11D)", "value": "essentially normal"}, {"measurement": "Pathological change grade: Bone Marrow, Atrophy", "setting": "CD2F1 male mice; [6]", "value": 2}, {"measurement": "Pathological change grade: Bone Marrow, Hemorrhage", "setting": "CD2F1 male mice; [6]", "value": 0}, {"measurement": "Pathological change grade: Colon, Infiltrate, mixed cells", "setting": "CD2F1 male mice; [6]", "value": "0-1"}, {"measurement": "Pathological change grade: Duodenum", "setting": "CD2F1 male mice; [6]", "value": 0}, {"measurement": "Pathological change grade: Heart, Infiltrate, mixed cells", "setting": "CD2F1 male mice; [6]", "value": 0}, {"measurement": "Pathological change grade: Heart, Mineralization", "setting": "CD2F1 male mice; [6]", "value": 0}, {"measurement": "Pathological change grade: Ileum", "setting": "CD2F1 male mice; [6]", "value": 0}, {"measurement": "Pathological change grade: Jejunum", "setting": "CD2F1 male mice; [6]", "value": 0}, {"measurement": "Pathological change grade: Kidney", "setting": "CD2F1 male mice; [6]", "value": 0}, {"measurement": "Pathological change grade: Liver", "setting": "CD2F1 male mice; [6]", "value": 0}, {"measurement": "Pathological change grade: Lung, Fibrosis", "setting": "CD2F1 male mice; [6]", "value": 0}, {"measurement": "Pathological change grade: Lung, Infiltrate, mixed cells", "setting": "CD2F1 male mice; [6]", "value": 0}, {"measurement": "Pathological change grade: Spleen, Depletion, white pulp", "setting": "CD2F1 male mice; [6]", "value": "1-2"}, {"measurement": "Pathological change grade: Urinary bladder", "setting": "CD2F1 male mice; [6]", "value": 0}, {"measurement": "protective effects on tissue pathology, especially bone marrow", "setting": "CD2F1 male mice; 250, 500, 600, 700 mg/kg, 24 h before 9.2 Gy", "value": "significant dose-depending protective effects"}, {"measurement": "half-life at 0.898 mg/mL", "setting": "[2]", "value": "~7.5", "unit": "h"}]}
